Assay [1] addresses GDP-bound NRAS wild-type protein (Homo sapiens, UniProt P01111). Nature of the assay: Binding to NRAS by surface plasmon resonance (SPR), Single Cycle Kinetics. The following applies: for NRAS/KRAS (ratio of KD value with respect to GDP-bound NRAS wild-type protein to KD value with respect to KRAS): SPR KD ratio NRAS/KRAS, class symbols. On the technique in general: SPR reads the build-up and loss of mass on a sensor chip optically.

Assay [2] deals with GDP-bound HRAS wild-type protein (Homo sapiens, UniProt P01112). The experiment in a line: Binding to HRAS by surface plasmon resonance (SPR), Single Cycle Kinetics. The following applies: for HRAS/KRAS (ratio of KD value with respect to GDP-bound HRAS wild-type protein to KD value with respect to KRAS): SPR KD ratio HRAS/KRAS, class symbols.
GDP-bound HRAS wild-type protein, sequence (P01112 whole entry): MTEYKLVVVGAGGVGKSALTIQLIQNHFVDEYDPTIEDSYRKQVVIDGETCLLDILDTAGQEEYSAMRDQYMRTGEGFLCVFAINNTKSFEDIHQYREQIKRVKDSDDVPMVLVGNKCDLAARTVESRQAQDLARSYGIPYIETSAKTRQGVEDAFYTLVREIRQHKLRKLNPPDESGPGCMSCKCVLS
The mark [3] stands for this setting: SPR, GDP-bound NRAS wild-type protein vs GDP-bound KRAS wild-type protein.
Where [4] appears, read: SPR, GDP-bound HRAS wild-type protein vs GDP-bound KRAS wild-type protein.

GDP-bound NRAS wild-type protein, sequence (P01111 whole entry): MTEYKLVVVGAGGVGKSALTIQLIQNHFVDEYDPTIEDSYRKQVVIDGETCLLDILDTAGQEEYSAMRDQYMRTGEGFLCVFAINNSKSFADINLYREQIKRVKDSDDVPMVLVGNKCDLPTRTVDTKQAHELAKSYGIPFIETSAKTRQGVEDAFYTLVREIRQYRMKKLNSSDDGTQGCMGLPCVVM

On to `CCCOC[C@H]1C(=O)N[C@@H]([C@@H](C)CC)C(=O)N(C)CC(=O)N(C)[C@H]2C/C=C\CCN(C2=O)[C@@H](Cc2ccc(C(F)(F)F)cc2)C(=O)N(C)CC(=O)N[C@@H](CCc2ccc(Cl)c(Cl)c2)C(=O)N2C[C@H](OCC)C[C@H]2C(=O)NC2(CCC2)C(=O)N(C)[C@@H](C2CCCC2)C(=O)N(C)[C@H](C(=O)N(C)CCC)CC(=O)N1C` [PP2830], for which the “NRAS/KRAS (ratio of KD value with respect to GDP-bound NRAS wild-type protein to KD value with respect to KRAS)” value in assay [1] is “A (a compound having 10 or more and less than 20 is denoted as A)”. In addition, the “HRAS/KRAS (ratio of KD value with respect to GDP-bound HRAS wild-type protein to KD value with respect to KRAS)” value in assay [2] was “A (a compound having 10 or more and less than 20 is denoted as A)”.
For `CCC[C@H]1C(=O)N[C@@H]([C@@H](C)CC)C(=O)N(C)CC(=O)N(C)[C@H]2C/C=C\CCN(C2=O)[C@@H](Cc2ccc(C)cc2)C(=O)N(C)CC(=O)N[C@@H](CCc2ccc3c(C)c(C)n(C)c3c2)C(=O)N2C[C@H](OCC)C[C@H]2C(=O)NC2(CC(C)(C)C2)C(=O)N(C)[C@@H](C(CC)CC)C(=O)N(C)[C@H](C(=O)N(C)C)CC(=O)N1C` [PP2906], in assay [1], the “NRAS/KRAS (ratio of KD value with respect to GDP-bound NRAS wild-type protein to KD value with respect to KRAS)” value is “A (a compound having 10 or more and less than 20 is denoted as A)”. The “HRAS/KRAS (ratio of KD value with respect to GDP-bound HRAS wild-type protein to KD value with respect to KRAS)” value in assay [2] was “A (a compound having 10 or more and less than 20 is denoted as A)”.
As for `CCC[C@H]1C(=O)N[C@@H]([C@@H](C)CC)C(=O)N(C)CC(=O)N(C)[C@H]2C/C=C\CCN(C2=O)[C@@H](Cc2ccc(C(F)(F)F)cc2)C(=O)N(C)CC(=O)N[C@@H](CCc2cc(F)c(C(F)F)c(OC)c2)C(=O)N2C[C@H](OCC)C[C@H]2C(=O)NC2(CC(C)(C)C2)C(=O)N(C)[C@@H](C2CCCC2)C(=O)N(C)[C@H](C(=O)N(C)C)CC(=O)N1C` [PP2867], in assay [1], the “NRAS/KRAS (ratio of KD value with respect to GDP-bound NRAS wild-type protein to KD value with respect to KRAS)” value is “A (a compound having 10 or more and less than 20 is denoted as A)”. Further, the “HRAS/KRAS (ratio of KD value with respect to GDP-bound HRAS wild-type protein to KD value with respect to KRAS)” value in assay [2] was “A (a compound having 10 or more and less than 20 is denoted as A)”.
For the compound `CC[C@H](C)[C@@H]1NC(=O)[C@H](CC(C)C)N(C)C(=O)C[C@@H](C(=O)N2CCOCC2)N(C)C(=O)[C@H](C2CCCC2)N(C)C(=O)C2(CCC2)NC(=O)[C@@H]2C[C@@H](OCC3CC3)CN2C(=O)[C@H](CCc2cc(F)c(C(F)(F)F)c(F)c2)NC(=O)CN(C)C(=O)[C@H](Cc2ccc(C(F)(F)F)cc2)N2CCCC[C@@H](C2=O)N(C)C(=O)CN(C)C1=O` [PP1000], the “NRAS/KRAS (ratio of KD value for NRAS to KD value for KRAS)” value in assay [1] (setting [3]) is “B (a compound having 3 or more and less than 10 is denoted as B)”. Also, the “HRAS/KRAS (ratio of KD value for HRAS to KD value for KRAS)” value in assay [2] (setting [4]) is “B (a compound having 3 or more and less than 10 is denoted as B)”.
For `CCCC[C@H]1C(=O)N[C@@H]([C@@H](C)CC)C(=O)N(C)CC(=O)N(C)[C@H]2C/C=C\CCN(C2=O)[C@@H](Cc2ccc(C(F)(F)F)cc2)C(=O)N(C)CC(=O)N[C@@H](CCc2cc(F)c(C(F)(F)F)c(F)c2)C(=O)N2C[C@H](OCC)C[C@H]2C(=O)NC2(CCC2)C(=O)N(C)[C@@H](C2CCCC2)C(=O)N(C)[C@H](C(=O)N(CC)CC)CC(=O)N1C` [PP1576], the “NRAS/KRAS (ratio of KD value for NRAS to KD value for KRAS)” value in assay [1] (SPR, GDP-bound NRAS wild-type protein vs GDP-bound KRAS wild-type protein, KD ratio class) is listed as “AA (a compound having 20 or more is denoted as AA)”. In addition, in assay [2] (SPR, GDP-bound HRAS wild-type protein vs GDP-bound KRAS wild-type protein, KD ratio class), the “HRAS/KRAS (ratio of KD value for HRAS to KD value for KRAS)” value was “A (a compound having 10 or more and less than 20 is denoted as A)”.
As to `CCC[C@H]1C(=O)N[C@@H]([C@@H](C)CC)C(=O)N(C)CC(=O)N(C)[C@H]2C/C=C\CCN(C2=O)[C@@H](Cc2ccc(C(F)(F)F)cc2)C(=O)N(C)CC(=O)N[C@@H](CCc2ccc(CC)c(F)c2)C(=O)N2C[C@H](OCC)C[C@H]2C(=O)NC2(CC(C)(C)C2)C(=O)N(C)[C@@H](C2CCCC2)C(=O)N(C)[C@H](C(=O)N(C)C)CC(=O)N1C` [PP2856], the “NRAS/KRAS (ratio of KD value with respect to GDP-bound NRAS wild-type protein to KD value with respect to KRAS)” value in assay [1] was “A (a compound having 10 or more and less than 20 is denoted as A)”. Also, the “HRAS/KRAS (ratio of KD value with respect to GDP-bound HRAS wild-type protein to KD value with respect to KRAS)” value in assay [2] is “A (a compound having 10 or more and less than 20 is denoted as A)”.
As to `CCC[C@H]1C(=O)N[C@@H]([C@@H](C)CC)C(=O)N(C)CC(=O)N(C)[C@H]2C/C=C\CCN(C2=O)[C@@H](Cc2ccc(C(F)(F)F)cc2)C(=O)N(C)CC(=O)N[C@@H](CCc2cc(F)c(CC)c(OC)c2)C(=O)N2C[C@H](OCC)C[C@H]2C(=O)NC2(CC(C)(C)C2)C(=O)N(C)[C@@H](C2CCCC2)C(=O)N(C)[C@H](C(=O)N(C)C)CC(=O)N1C` [PP2862], the “NRAS/KRAS (ratio of KD value with respect to GDP-bound NRAS wild-type protein to KD value with respect to KRAS)” value in assay [1] is “A (a compound having 10 or more and less than 20 is denoted as A)”. Moreover, in assay [2], the “HRAS/KRAS (ratio of KD value with respect to GDP-bound HRAS wild-type protein to KD value with respect to KRAS)” value is “B (a compound having 3 or more and less than 10 is denoted as B)”.
In the case of `CCCOC[C@H]1C(=O)N[C@@H]([C@@H](C)CC)C(=O)N(C2CC2)CC(=O)N(C)[C@H]2C/C=C\CCN(C2=O)[C@@H](CC2CCC(F)(F)CC2)C(=O)N(C)CC(=O)N[C@@H](CCc2ccc(C(F)(F)F)c(OC)c2)C(=O)N2C[C@H](OCC)C[C@H]2C(=O)N(C)C2(CCC2)C(=O)N(C)[C@@H](C2CCCC2)C(=O)N(C)[C@H](C(=O)N(C)C)CC(=O)N1C` [PP2354], the “NRAS/KRAS (ratio of KD value for NRAS to KD value for KRAS)” value in assay [1] (setting [3]) is “A (a compound having 10 or more and less than 20 is denoted as A)”. Besides, the “HRAS/KRAS (ratio of KD value for HRAS to KD value for KRAS)” value in assay [2] (setting [4]) is “A (a compound having 10 or more and less than 20 is denoted as A)”.
Take `CCC[C@H]1C(=O)N[C@@H]([C@@H](C)CC)C(=O)N(C2CC2)CC(=O)N(C)[C@H]2C/C=C\CCN(C2=O)[C@@H](Cc2ccc(C)cc2)C(=O)N(C)CC(=O)N[C@@H](CCc2cc(C)c(C(F)F)c(F)c2)C(=O)N2C[C@H](OCC)C[C@H]2C(=O)NC2(CC(C)(C)C2)C(=O)N(C)[C@@H](C2CCCC2)C(=O)N(C)[C@H](C(=O)N(C)C)CC(=O)N1C` [PP2874]: in assay [1], the “NRAS/KRAS (ratio of KD value with respect to GDP-bound NRAS wild-type protein to KD value with respect to KRAS)” value was “A (a compound having 10 or more and less than 20 is denoted as A)”. In addition, in assay [2], the “HRAS/KRAS (ratio of KD value with respect to GDP-bound HRAS wild-type protein to KD value with respect to KRAS)” value was “A (a compound having 10 or more and less than 20 is denoted as A)”.
`CC[C@H](C)[C@@H]1NC(=O)[C@H](CC(C)C)N(C)C(=O)C[C@@H](C(=O)N2C3CCC2COC3)N(C)C(=O)[C@H](C2CCCC2)N(C)C(=O)C2(CCCC2)NC(=O)[C@@H]2CCCN2C(=O)[C@H](CCc2cc(F)c(C(F)(F)F)c(F)c2)NC(=O)CN(C)C(=O)[C@H](Cc2ccc(C(F)(F)F)cc2)N2CCCC[C@@H](C2=O)N(C)C(=O)CN(C)C1=O` [PP0573]: the “NRAS/KRAS (ratio of KD value with respect to NRAS to KD value with respect to KRAS)” value in assay [1] (setting [3]) is “B (a compound having 3 or more and less than 10 is denoted as B)”. In assay [2] (setting [4]), the “HRAS/KRAS (ratio of KD value with respect to HRAS to KD value with respect to KRAS)” value is “B (a compound having 3 or more and less than 10 is denoted as B)”.
Turning to `CC[C@H](C)[C@@H]1NC(=O)[C@H](CC(C)C)N(C)C(=O)C[C@@H](C(=O)N(C)C)N(C)C(=O)[C@H](C2CCCC2)N(C)C(=O)C2(CCCC2)NC(=O)[C@@H]2C[C@@H](C)CN2C(=O)[C@H](CCc2cc(F)c(C(F)(F)F)c(F)c2)NC(=O)CN(C)C(=O)[C@H](Cc2ccc(C)cc2)N2CC/C=C\C[C@@H](C2=O)N(C)C(=O)CN(C)C1=O` [PP2189], in assay [1] (setting [3]), the “NRAS/KRAS (ratio of KD value for NRAS to KD value for KRAS)” value is “A (a compound having 10 or more and less than 20 is denoted as A)”. For the same compound, in assay [2] (setting [4]), the “HRAS/KRAS (ratio of KD value for HRAS to KD value for KRAS)” value is “A (a compound having 10 or more and less than 20 is denoted as A)”.

These data come from patent US20240158446A1, “CYCLIC COMPOUND HAVING SELECTIVE INHIBITORY ACTION ON KRAS OVER HRAS AND NRAS” (CHUGAI SEIYAKU KABUSHIKI KAISHA, priority 2021, published 2024).
